experiment: Human HepG2 cell viability assay in 384 well format; type: toxicity, cell-based; set-up: dose 125 nL, time 70.5 hour; concentration not given beside the values; conditions: HepG2 cells, read-out: Inhibition

Structure (SMILES) | cytotoxicity at 70.5 h [%]
CC[C@H]1CN(C(=O)CCn2c(C)cccc2=O)CC[C@@]1(C)O | -4.82
COCCOc1ncccc1CNC(=O)N1CCOCC1 | -7.27
Cc1csc(N2CCCN(C(=O)C(C(C)C)n3cncn3)CC2)n1 (stereo not drawn) | 2.24
CN(C(=O)Cc1ccccc1F)C1CCN(c2ccccn2)CC1 | -3.14
CCCOc1ccc(OCCN2CCOCS2(=O)=O)cc1 | -10.3
CC(O)CN1CCN(C(=O)c2cccn2Cc2ccncc2)CC1 (stereo not drawn) | -16.4
CCNC(=O)[C@@H]1C[C@H](NC(=O)Cn2ccnc2)CN1Cc1ccsc1 | 14.3
Cc1ccc(CNC(=O)c2c[nH]nc2NC(=O)C2COCCO2)cc1 (stereo not drawn) | -0.405
CN(Cc1nccs1)c1nc(-c2ccccn2)nc2c1CCNCC2 | -4.75
Cc1ccccc1CN(C)C(C(N)=O)c1ccccc1 (stereo not drawn) | -16.6
O=C(NC1CC1)C1CCc2nnc(C3CC3)n21 (stereo not drawn) | -10.1
CN(CC1CCOCC1)C1CCCN(c2ccccn2)C1 (stereo not drawn) | -7.08
CN1CCCCC1c1ncc2c(n1)CCN(CCCc1ccccc1)C2 (stereo not drawn) | 16.2
CCc1nc2n(n1)CC(NCCc1cccs1)CC2 (stereo not drawn) | 3.55
NC(=O)CN1CCCC(c2cncc(Nc3ncccn3)n2)C1 (stereo not drawn) | -6.48
C1CCC(CNC2CCCN(Cc3noc(C4CC4)n3)C2)CC1 (stereo not drawn) | -15.3
CCc1nc(NCCc2c(C)nn(CC)c2C)c2cnn(C)c2n1 | -9.28
N#Cc1cccc(S(=O)(=O)N2CCCCC2C(N)=O)c1 (stereo not drawn) | -3.12
c1cncc(CN2CCC3(CCCN(c4nncs4)C3)C2)c1 (stereo not drawn) | -7.53
C/C(=C\c1ccco1)CN(C)C(C)Cc1ccccn1 (stereo not drawn) | 16
Cc1ccccc1C(=O)N1C[C@@H](O)[C@H](N2CCOCC2)C1 | -3.66
Cc1cc(N2CCC3(CCC(=O)N(CC4CC4)C3)CC2)ncn1 | -7.85
NCc1n[nH]c(-c2cccc(F)c2)n1 | 32.2

Structure (SMILES) | cytotoxicity at 70.5 h [%]
CC(C)n1nc2c(cc1=O)CN(c1nc3ccccc3s1)CC2 | 3.31
O=C(NCC1CC1)C1CN(C(=O)Nc2ccccc2)CC12CCOCC2 (stereo not drawn) | -5.6
O=C(CN1CCCC1Cn1cccn1)NC1CCOCC1 (stereo not drawn) | -5.99
CCn1c(Cn2cncn2)nnc1C1CCN(C(=O)CCSC)CC1 | -4.61
Cc1cccc(CN2C[C@@H]3CN(C(=O)c4cnoc4C)C[C@@H]3C2=O)n1 | -5.42
CCN(CC)CC(=O)N1CCN(c2nc(C)cc(OC)n2)CC1 | -0.607
NC(=O)CNC(=O)c1ccc(CNCc2ccc(F)cc2F)cc1 | -23.7
CN1CCN(c2cc(CNC(=O)c3ccc(Cl)o3)ccn2)CC1 | -3.02
COc1ccc(CN(C)[C@@H]2CN(C(=O)c3cccnc3)C[C@H]2O)cc1 | 2.56
CC(C)CN1CC[C@@H]2[C@H](CC1)N(C(=O)c1ccccc1)CCS2(=O)=O | -1.5
Cc1cc(C(=O)N2CCCC(N3CCCCCC3)C2)nn1C(C)(C)C (stereo not drawn) | 16.8
COCC(=O)N1CCC2(CC1)CN(c1ccccn1)CCO2 | -7.15
Cc1cc(C)n(CC2CCCN2CC(=O)Nc2nncs2)n1 (stereo not drawn) | 30
O=C(CCNC(=O)c1ccoc1)Nc1cccc(F)c1 | -6.83
COc1ccc(CN2C[C@H]3CN(Cc4ccncc4)C(=O)[C@H]3C2)cc1 | -7.43
COc1cc(CN2CCC3(CC(Nc4ccncn4)C3)C2)cc(OC)c1 (stereo not drawn) | 0.186
CCCc1cc(N2CCCC2Cn2cc(C)cn2)n2ncnc2n1 (stereo not drawn) | -8.77
CC(=O)NCCNC(=O)Nc1cc(C(C)(C)C)sc1C#N | -1.29
Cc1nc(CN2C(=O)CC[C@H]3[C@@H]2CCN3C(=O)c2ccsc2)cs1 | -11.6
CC(C)Cc1noc(CN(C)C(=O)C2COc3ccccc3C2)n1 (stereo not drawn) | -14.4
COCc1nc(C(=O)NS(=O)(=O)c2ccc(OC)c(C)c2)cs1 | -13.2
O=C1O[C@@H]2CN(Cc3cccnc3)C[C@@H]2N1CCCN1CCOCC1 | -1.95
O=C(c1cccc2ncccc12)N1CCC(Nc2cccnn2)CC1 | -3.36

Structure (SMILES) | cytotoxicity at 70.5 h [%]
Cc1ccc(OCC(O)CN2CCC(Cn3cc(C)cn3)CC2)cc1 (stereo not drawn) | -0.66
CCN1CC(COc2ccccc2)Oc2ncccc2S1(=O)=O (stereo not drawn) | -3.66
CSc1ccccc1CN1C[C@H]2CC[C@@H]1CN(Cc1[nH]cnc1C)C2 | 17.6
Cc1ccc(N2CCCN(C(=O)C3CCCO3)CC2)nn1 (stereo not drawn) | 4.49
CCc1ncnc2c1CCN(Cc1ccc3c(c1)OCO3)CC2 | 4.52
CCCn1nc2c(cc1=O)CN(Cc1ccccn1)CC2 | 0.0556
CS(=O)(=O)N1CCO[C@@H]2CN(Cc3ccc(F)cc3)C[C@@H]2C1 | -6.95
CCS(=O)(=O)NCc1cccnc1N1CCCC(O)C1 (stereo not drawn) | -26.9
CCc1ccc(NC(=O)N2C[C@H]3C[C@H](C(=O)NC(C)C)[C@@H](C2)O3)cc1 | -7.8
Cc1nc(N2CCOc3ccc(CO)cc3C2)c2nc(C)oc2n1 | -1.34
Cc1ccc(NC2CCN(C(=O)c3ccc(C)o3)CC2)nn1 | -0.446
Cc1ccc(N2CCC3(CC2)CNC(=O)CO3)nn1 | -4.26
CC(C)Cc1ncc2c(n1)CN(C(=O)c1ccc(CN3CCCC3)o1)C2 | -7.27
CNC(=O)COc1cccc(CNCc2c(C)noc2C)c1 | 10.2
COCC(=O)N1CCN(Cc2cc(-c3ccncc3)nn2C)CC1 | -3.57
NC(=O)c1cc(C2CCCN(CCOc3cccc(F)c3)C2)n[nH]1 (stereo not drawn) | 13
NC(=O)CN1CCCC(c2nccnc2Oc2cccc(F)c2)C1 (stereo not drawn) | -9.46
Cc1cccc(-c2noc(CN3CC(n4cc(C)cn4)C3)n2)c1 | -5.31
CC(C)CS(=O)(=O)Nc1ccc2c(c1)OCC(C)(C)C(=O)N2C | 50.7
CS(=O)(=O)CCCC(=O)Nc1cc(Cl)c(Cl)cn1 | 0.966
Cc1ccc(OCC(=O)NC2CC2)nc1 | -2.52
COc1ccccc1OCCN1CCCC(c2cc(C(N)=O)[nH]n2)C1 (stereo not drawn) | -9.71
COc1cccc(CN2CCC3(CC(Nc4ccncn4)C3)C2)c1F (stereo not drawn) | 2.19

Structure (SMILES) | cytotoxicity at 70.5 h [%]
CCOC(=O)N1CCc2ccccc2C12CCNCC2 | -2.47
CC(=O)Cn1nc(-c2ccccc2F)ccc1=O | -3.88
Fc1ccc(C2(NCc3ccccc3)CCOCC2)cc1 | -3.51
CC(NC(=O)NCCCO)c1ccc2c(c1)OCCO2 (stereo not drawn) | -10.1
Cc1cc(C2CCCN2Cc2ccc(S(=O)(=O)N(C)C)o2)on1 (stereo not drawn) | -1.52
CCCc1nc(C(=O)N2CCN(S(=O)(=O)CC)CC2)cs1 | 10.2
O=C(CCc1cc2n(n1)CCCNC2)NCCCSC1CCCCC1 | -8.87
Cc1cccc(C(C)NCC2CCS(=O)(=O)CC2)c1 (stereo not drawn) | -3.65
NC(=O)CN1CCCN(C(=O)Cc2ccc(Br)cc2)CC1 | -13.7
Fc1cnc(N2CCO[C@H]3[C@H](OCC4CCOCC4)CC[C@@H]32)nc1 | -9.91
Cc1ccc(C(=O)N(C)CC(=O)NCC(F)(F)F)cn1 | 0.05
Cc1noc(-c2ccc(N3CCCC(C(=O)N4CCSCC4)C3)nc2)n1 (stereo not drawn) | 3.88
CCn1cc(NC(=O)NCC(c2cccc(OC)c2)N(C)C)cn1 (stereo not drawn) | -8.98
Cc1cccc(-c2ccc(C(=O)N3CCN(C(C)C)CC3)c(=O)[nH]2)c1 | -2.78
O=C(c1cnn(-c2ccccc2Cl)c1)N1CCN(CCO)CC1 | -5.36
COc1ccc(CC(C)(O)CNC(=O)c2cccs2)cc1 (stereo not drawn) | -15.5
Cc1ccc(CN2CC[C@H]3OCC[C@@H](C(=O)NCC4CC4)[C@@H]3C2)s1 | -6.5
CC(C)CN1CC[C@@H]2[C@H](CC1)N(S(C)(=O)=O)CCS2(=O)=O | -11.1
CCCn1nnc(NCc2cc(Br)cc(Br)c2OC)n1 | -9.35
COCC(=O)NCc1cc(=O)n2c(n1)CN(Cc1ccoc1)CCC2 | 1.73
CCc1nc(C)c(C(=O)N(C)Cc2cnc3ccccn23)o1 | -7.82
CCOc1nnc(CNC2CCCN(c3ccc(C)nn3)C2)s1 (stereo not drawn) | -1.05
Cc1cccc(CN2C[C@@H]3COC[C@]3(CNC(=O)C3CCC3)C2)c1 | -7.15

Structure (SMILES) | cytotoxicity at 70.5 h [%]
Cc1nc(CNC(=O)CC2C(=O)NCCN2CCC(C)C)n[nH]1 (stereo not drawn) | -8.3
O=C(Cc1ccccn1)N1CCN2C[C@H](OCCN3CCCC3)C[C@H]2C1 | 19.7
O=C1CC(c2ccc3c(c2)OCO3)c2cnn(C3CCCC3)c2N1 (stereo not drawn) | -15.7
COCCN1C(=O)[C@]2(CC[C@@H]3CN(Cc4ccccc4F)C[C@@H]32)N=C1C | -9.72
CC(C)c1nnc2sc(CC3CN(C(C)C)CCO3)nn12 (stereo not drawn) | -7.69
Cc1noc([C@@H]2C[C@H](NC(=O)C3CCCCC3)CN2C)n1 | 0.213
CCc1nc(C)cn1C(=O)Nc1ccc(F)cc1 | 5.48
CC(C(=O)Nc1cccc(N2CCCCC2)c1)n1cncn1 (stereo not drawn) | -6.3
COc1cc2c(c(OC)c1OC)CCN(CCN1CCCCC1)CC2 | -10.5
CC(C(=O)Nc1cccc(Cl)c1)N1CCN(Cc2ncc[nH]2)CC1 (stereo not drawn) | -10.6
N#CC(NC(=O)CNC(=O)c1ccccc1)c1ccsc1 (stereo not drawn) | -3.11
COc1cccc(OC2CN(C(=O)c3cc(CC(C)C)nn3C)C2)c1 | -1.49
O=C(CCCc1ccc(Cl)cc1)N1CCN(C(=O)c2ccc[nH]2)CC1 | 1.45
CCCc1cc(NC2CCc3nc(C(C)C)nn3C2)n2ncnc2n1 (stereo not drawn) | -104
CCCN(CCc1cccc(F)c1)c1ccc2nnnn2n1 | -22.2
CS(=O)(=O)NCCN1CCOC2(CCc3ccccc32)C1 (stereo not drawn) | -7.71
Cn1nc(C(=O)NN2CCOCC2)c(Cl)c1C(F)(F)F | -3.83
CCCNCc1ccc(-c2ccnc3[nH]ccc23)cc1 | 29.1
Cc1ncsc1CNc1cccc(OCCN2CCCC2)c1 | 1.28
CN(C)C(=O)c1cccc(CN2CCN(CC(O)C(C)(C)C)CC2)c1 (stereo not drawn) | -11.5
COCC(=O)NCc1ccc(-c2ccccc2C(=O)O)cn1 | -3.58

Source: ChEMBL document CHEMBL3507680, “University of Dundee, Gates Library screen for HepG2 cell viability”
